Laboratory results taken from patent US20060198836A1, “Method of treating hit patients with argatroban” (Smithkline Beecham Corporation, priority 2003, published 2006).
Read-outs that look alike come from different tables or passages of the source.

Columns and labels:
Type in all cases: in vivo, human
[1] = test system: patient with HIT with thrombosis; experiment: Example 3 patient case: Argatroban with transition to warfarin, avoiding warfarin-induced skin necrosis and venous limb gangrene
Description: The following patient case is an example of an appropriate transition to warfarin, because Argatroban therapy is continued for at least 5 days and until the patient's platelet count has recovered to >100×10^9/L. In addition, concomitant therapy with Argatroban and warfarin overlaps for at least 4-5 days.
A person presented to the hospital with an acute myocardial infarction, for which they received tissue plasminogen activator and heparin. Their platelet count was 190×10^9/L on admission. They underwent coronary artery bypass grafting several days later, and heparin was continued throughout the peri-operative period. Postoperatively, the patient experienced atrial fibrillation, and warfarin was initiated. Four days postoperatively, they developed pain and discoloration of the left breast and right leg. The platelet count was 60×10^9/L and the INR was 6.1. Unfortunately, the breast and leg lesions progressed rapidly and the patient ultimately required a mastectomy and below the knee amputation. Five weeks later, they were readmitted with upper extremity swelling. The platelet count was 126×10^9/L on readmission. Ultrasound confirmed axillary/subclavian and femoral venous thromboses, for which heparin therapy was re-initiated. The platelet count fell from 126×10^9/L to 26×10^9/L after 3 days of intravenous heparin, and the diagnosis of HIT with thrombosis was made. The patient's initial breast and leg lesions are examples of warfarin-induced skin necrosis and venous limb gangrene, respectively, which are possible clinical manifestations of HIT. The patient was started on Argatroban 2 mcg/kg/min and the dose was titrated to maintain aPTT values between 1.5 and 3 times their baseline aPTT. […] Argatroban was continued for 11 days. On day 6 of Argatroban therapy, warfarin was initiated at the estimated daily dose of 5 mg. At that time, the platelet count was 150×10^9/L. Concomitant therapy with Argatroban and warfarin was continued for […] in accordance with the recommended overlap of 4 to 5 days. On the 5th day of concomitant therapy, the Argatroban was held for 6 hours and the INR value reflecting warfarin therapy alone was checked. The INR was 2.9 and the Argatroban infusion was subsequently discontinued. • See e.g.: • Warkentin T E, Elavathil L J, Hayward C P M, et al. The pathogenesis of venous limb gangrene associated with heparin-induced thrombocytopenia. Ann Intern Med. 1997; 127:804-812. • Smythe M A, Warkentin T E, Stephens J L, et al. Venous limb gangrene during overlapping therapy with warfarin and a direct thrombin inhibitor for immune heparin-induced thrombocytopenia. Am J Hematol 2002; 71:50-52. • Srinivasan A F, Rice L, Bartholomew J R, et al. Warfarin-induced skin necrosis and venous limb gangrene in the setting of heparin-induced thrombocytopenia. […]

[2] = test system: patient with HIT with thrombosis (HITT); experiment: Example 1 patient case: Argatroban monotherapy in HIT with thrombosis, serial platelet counts
Procedure: The patient is a person with a history of hypertension and hyperlipidemia who presented to the emergency department (ED) complaining of chest pain. […] The patient was admitted to the Coronary Care Unit and was treated with aspirin, intravenous nitroglycerin, metoprolol, and intravenous heparin. The platelet count on admission was 212×10^9/L. Serial cardiac enzymes and troponin concentrations were negative for a myocardial infarction. […] Coronary artery bypass grafting was performed 2 days later with an uneventful postoperative course. They were discharged from the hospital 7 days after the surgery in good condition and their platelet count was 136×10^9/L. One week later, the patient returned to the ED complaining of the acute onset of a cold and painful swollen left leg. Their medications included aspirin 325 mg daily, metoprolol 75 mg twice daily, NitroDur 20 mg daily and atorvastatin 20 mg daily. The physical examination was normal with the exception of mild hypertension and a cold, swollen left leg with blue discoloration from the knee down. In addition, the left popliteal pulse was faint and the left ankle pulse was non-palpable. […] Intravenous heparin was started and the patient was sent to the operating room for emergency surgery. A femoro-popliteal bypass was performed with a graft and there was an initial return of arterial blood flow to the lower leg. However, before the incision was closed, the graft re-occluded. The graft was opened and explored with an embolectomy catheter. A large amount of whitish granular material was found and subsequently removed from the distal end of the graft. Pulses returned to the lower leg and the incision was closed. By the time the closure was complete, the graft had again re-occluded. The finding of a platelet-rich “white clot” during this surgery along with thrombocytopenia alerted physicians to suspect HIT with thrombosis (HITT). Heparin was immediately discontinued and the DTI Argatroban was initiated (at 2 mcg/kg/min) that evening (day 1 of Argatroban). On the following day, the patient's left lower leg remained cold, blue and pulseless. They were transferred to another hospital where an amputation was performed. Argatroban was continued for 10 days. The platelet count began improving with the following serial platelet counts: 62×10^9/L on day 4, 78×10^9/L on day 6, 110×10^9/L on day 8 and 180×10^9/L on day 10. The patient was measured for a prosthetic leg and they underwent intense physical therapy for 6 months.

[3] = test system: patient with HIT with thrombosis
Description: A person experienced pregnancy-induced hypertension and sudden weight gain during the third trimester of pregnancy. Premature labor led to the delivery of twins at 31 weeks gestation. After delivery, the patient remained hypertensive. On post-partum day 7, they awoke with chest pain and shortness of breath. They were lethargic with a blood pressure of 190/96 mm Hg and heart rate 135 beats per minute.
On postpartum day 10, the patient was transferred to another hospital for left hemiparesis. A non-hemorrhagic right cerebral infarction was confirmed by computed tomography. During days 4 to 7 of heparin therapy, platelet counts fluctuated between 163×10^9/L and 99×10^9/L with no clear downward trend. A platelet count was not obtained on day 8. However, on day 9 of heparin therapy, the patient's right leg became ischemic and their platelet count decreased to 34×10^9/L. HIT was suspected and heparin was immediately discontinued. The patient was taken to the operating room and Fogerty balloon thrombectomy of the right superficial and profunda arteries removed a typical red, fleshy acute thrombus. The clinical diagnosis of HIT with thrombosis was confirmed by the detection of heparin/PF4 antibodies in the patient's day 9 serum (but not in their serum from day 3) using an in-vitro functional test, the serotonin release assay (SRA).
An alternative anticoagulant was needed for further treatment of their pulmonary embolism and to prevent further thrombosis of the right femoral artery. The direct thrombin inhibitor Argatroban was initiated at 2 mcg/kg/min and titrated to achieve an activated partial thromboplastin time (aPTT) of 1.5 to 3.0 times the patient's baseline aPTT value.
After 6 days of Argatroban monotherapy and recovery of the platelet count to >100×10^9/L, warfarin was initiated concomitantly. Warfarin was started at the expected daily dose of 5 mg. On the 4th day of concomitant therapy, Argatroban infusion was held for 4 hours (to eliminate the effects of Argatroban on the INR) and the INR was rechecked to assure a therapeutic INR on warfarin alone. The INR was 2.1, which is considered therapeutic for the underlying medical condition, so the Argatroban was discontinued.

patients with HIT = experiment: Clinical trial of 304 patients with HIT with or without thrombosis who received argatroban; outcome by platelet count on day of argatroban cessation
Description: In a clinical trial of 304 patients with HIT with or without thrombosis who received argatroban, 165 patients with active HIT had platelet count data available for the day of argatroban cessation. […] Therefore, we recommend these approaches for refining the existing method of therapy in patients with HIT receiving Argatroban.

CC1CNc2c(cccc2S(=O)(=O)N[C@@H](CCCNC(=N)N)C(=O)N2CC[C@@H](C)C[C@@H]2C(=O)O)C1 (stereo partly shown) [Argatroban]
platelet count ([1]; day 6 of Argatroban therapy, when warfarin was initiated, 26×10^9/L before Argatroban): 1.5e+11 L⁻¹ | platelet count ([2]; day 4 of Argatroban, initiated at 2 mcg/kg/min, 41×10^9/L before): 6.2e+10 L⁻¹ | platelet count ([2]; day 6 of Argatroban): 7.8e+10 L⁻¹ | platelet count ([2]; day 8 of Argatroban): 1.1e+11 L⁻¹ | platelet count ([2]; day 10 of Argatroban): 1.8e+11 L⁻¹ | recovery of the platelet count ([3]; after 6 days of Argatroban monotherapy): > 1e+11 L⁻¹ | platelet count ([3]; hospital day 10, day 2 of Argatroban therapy, 34 × 10^9/L prior to initiation): 5.5e+10 L⁻¹ | platelet count ([3]; hospital day 13, day 5 of Argatroban therapy): 1.1e+11 L⁻¹ | platelet count ([3]; hospital day 14, day 6 of Argatroban therapy): 1.6e+11 L⁻¹ | platelet count ([3]; hospital day 16, day 8 of Argatroban therapy (warfarin concomitant)): 1.49e+11 L⁻¹ | platelet count ([3]; hospital day 18, day 10 of Argatroban therapy (warfarin concomitant)): 2.1e+11 L⁻¹ | platelet count ([3]; hospital day 20, day 12 of Argatroban therapy): 2.8e+11 L⁻¹ | patients who experienced the composite endpoint of either death, amputation or new thrombosis (patients with HIT; 41 patients with platelet count <100×10^9/L on the day argatroban therapy was discontinued): 61% | patients who experienced the composite endpoint of either death, amputation or new thrombosis (patients with HIT; 124 patients with platelet count >100×10^9/L on the day argatroban therapy was discontinued): 31.5%

heparin
platelet count ([1]; human, in vivo, iv): 2.6e+10 L⁻¹ | platelet count ([3]; human, in vivo): 3.4e+10 L⁻¹

CC(=O)CC(c1ccccc1)c1c(O)c2ccccc2oc1=O (stereo not shown) [warfarin]
INR ([1]; four days postoperatively, warfarin initiated during heparin exposure, onset of skin necrosis and venous limb gangrene, platelet count 60×10^9/L): 6.1 | INR value reflecting warfarin therapy alone ([1]; warfarin 5 mg daily, 5th day of concomitant therapy, Argatroban held for 6 hours): 2.9 | INR on warfarin alone ([3]; warfarin 5 mg daily, 4th day of concomitant therapy, Argatroban infusion held for 4 hours): 2.1
